Laboratory results taken from patent US9884891B2, “KISS1R receptor agonist compounds and use thereof for inducing ovulation in mammals” (INSTITUT NATIONAL DE LA RECHERCHE AGRONOMIQUE, priority 2013, dated 2018).
Like-named read-outs stand apart in the source and are kept apart here. *1 amine or outer side, *2 acyl side, *3 side chain or, on linkers, in order; H or OH if unused. Where a SMILES comes first, the peptide text is derived from it. [ ]: non-standard residue; d: D form. The star is where a group is joined. PEG 5000 = polyethylene glycol (5000) attached to the Lys side chain; Glyψ(1,4-Tz)Leu = CC(C)C[C@@H](C(=O)[*:2])n1cc(CN[*:1])nn1; γGlu = O=C(O)[C@H](CCC(=O)[*:2])N[*:1]; Arg(Me) = CNC(=N)NCCC[C@H](N)C(=O)O; Palmitoyl = CCCCCCCCCCCCCCCC(=O)*

Assays:
human KISS1R receptor = biological target: T1, human KISS1R receptor (Homo sapiens, UniProt Q969F8); assay: Intracellular calcium mobilization test in HEK293A cells expressing human KISS1R; assay type: cell-based; conditions: for EC50: HEK293A cells expressing human KISS1R, Fluo-4NW; for human KISS1R-stimulating power (in words): calcium mobilization, compared with Comp.1
T1 construct: expressed in transfected cells
Description: In order to carry out the in vitro tests for the activity of the peptide compounds in accordance with the invention and the comparative compounds, the HEK293A cell line (ATCC, American Type Culture Collection, Manassas, Va., USA) was stably transfected with the human KISS1R receptor (Genbank accession number: NM_032551). The pcDNA3.1 vector (Invitrogen, Cergy Pontoise, France), into which the sequence of human KISS1R has been inserted with a 5′ HA tag at position 957-2150 bp, was used for the transfection. The transfection and the selection of the clones were carried out as described in the literature (Mancini et al. 2009, and Invitrogen website).
In order to verify the agonist activity and to measure the EC50 of the peptide compounds according to the invention, the following protocol was carried out.
HEK293A cells expressing the human KISS1R receptor were seeded into a 96-well plate (μClear® black plate) at the concentration of 40 000 cells/well, and placed in an incubator at 37° C. After 48 hours, the medium was changed and the cells were incubated with the fluorescent dye Fluo-4NW, according to the instructions of the manufacturer (Molecular Probe).
After having measured the basal fluorescence, 5 μl of the 20× solution containing the test compound were added to each well (containing 95 μl) so as to obtain the desired concentration. The variations in fluorescence were recorded every 7 seconds for 5-7 minutes with a plate reader (PolarStar Optima, BMG Labtech). Activity-concentration curves were generated using the GraphPad Prism 5 software, and the EC50 of each compound was calculated by adjusting the curve to a sigmoid.

[1] = Test for proteolytic degradation of the peptide compounds in ovine serum; assay type: in vitro ADME, ewes of the Ile de France breed; conditions: female, Ile de France, sheep
Description: In order to carry out this test, blood was collected from the jugular vein of ewes of the Ile de France breed, and centrifuged. The supernatant (serum) was stored at −20° C. until use.
The degradation in this serum of the various peptide compounds in accordance with the invention and of the comparative peptide compounds is monitored over time. To this effect, each peptide compound to be analyzed and the internal calibrant (L-phenylalaninol) are dissolved in milliQ water (0.5 mM and 6.6 mM, respectively). The commercial protease inhibitor cocktail (Sigma, ref. P8340) is supplied in solution in DMSO.
The serum and the stock solutions of peptide compounds are preheated at 39° C. for 30 minutes. Each solution of peptide compound (50 μl, i.e. a final concentration in the serum of 50 μM) and the solution of internal calibrant (25 μl) are mixed with 425 μl of serum and incubated at 39° C. The proteolytic degradation kinetics of the compounds are monitored by taking a sample, at various given times, of 75 μl of the solution, which are diluted with 150 μL of acetonitrile in order to precipitate the serum proteins. The suspension obtained is centrifuged at 14 000 revolutions/min for 10 min at 4° C.
The amount of peptide compound intact after incubation is determined by integration of the area of the peak, using L-phenylalaninol as internal calibrant. It is expressed as % of the area of the peak at time t=0.
The value corresponding to 100% of intact peptide compound is obtained by mixing 420 μl of serum, 5 μl of the inhibitor cocktail and 25 μl of the phenylalaninol solution, followed by 50 μl of peptide compound, and then by immediately treating the resulting solution according to the protocol described above.

[2] = read-out: EC50, intracellular calcium mobilization of cells expressing human KISS1R (Table 2)
[3] = compounds with serum albumin binding unit or PEG, read-out: EC50, intracellular calcium mobilization of cells expressing human KISS1R (Table 3)
[4] = ovine serum, 39° C., 50 μM, 3 h, % of the area of the HPLC peak at time t = 0, read-out: % of peptide intact after 3 h of incubation in the serum

T1 sequence (Q969F8 whole entry): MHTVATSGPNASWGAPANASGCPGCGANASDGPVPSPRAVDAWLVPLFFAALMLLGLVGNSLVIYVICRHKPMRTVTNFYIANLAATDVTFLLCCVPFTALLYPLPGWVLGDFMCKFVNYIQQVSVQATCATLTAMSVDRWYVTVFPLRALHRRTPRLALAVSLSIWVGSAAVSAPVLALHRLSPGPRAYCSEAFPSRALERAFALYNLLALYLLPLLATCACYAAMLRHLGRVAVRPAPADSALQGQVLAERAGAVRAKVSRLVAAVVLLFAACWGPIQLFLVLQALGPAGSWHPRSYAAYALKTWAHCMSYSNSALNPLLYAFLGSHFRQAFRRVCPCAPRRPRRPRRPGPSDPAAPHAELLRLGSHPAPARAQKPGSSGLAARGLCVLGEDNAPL

Q: Which results are given for `CNC(=N)NCCC[C@H](NC(=O)[C@H](CC(C)C)n1cc(CNC(=O)[C@H](Cc2ccccc2)NC(=O)[C@H](CO)NC(=O)[C@H](CC(N)=O)NC(=O)[C@H](Cc2c[nH]c3ccccc23)NC(=O)[C@H](CC(N)=O)NC(=O)[C@H](Cc2ccc(O)cc2)NC(C)=O)nn1)C(=O)N[C@@H](Cc1ccc(O)cc1)C(N)=O` [Compound C3, Ac-Tyr-Asn-Trp-Asn-Ser-Phe-GlyΨ[Tz]Leu-Arg(Me)-Tyr-NH2] (HELM PEPTIDE1{[ac].Y.N.W.N.S.F.[CC(C)C[C@@H](C(=O)[*:2])n1cc(CN[*:1])nn1].[CNC(=N)NCCC[C@H](N[*:1])C(=O)[*:2]].Y.[am]}$$$$V2.0)?
A: EC50 (human KISS1R receptor; [2]): 0.014 nM; remaining at 3 h, 50 μM ([1]; serum): 55%

Q: Which EC50 (human KISS1R receptor; [3]) does the source give for `CCCCCCCCCCCCCCCC(=O)N[C@@H](CCC(=O)N[C@@H](Cc1ccc(O)cc1)C(=O)N[C@@H](CC(N)=O)C(=O)N[C@@H](Cc1c[nH]c2ccccc12)C(=O)N[C@@H](CC(N)=O)C(=O)N[C@@H](CO)C(=O)N[C@@H](Cc1ccccc1)C(=O)NCc1cn([C@@H](CC(C)C)C(=O)N[C@@H](CCCNC(=N)N)C(=O)N[C@@H](Cc2ccccc2)C(N)=O)nn1)C(=O)O` [Compound C13, γ-(N-hexadecanoyl-Glu-OH)Tyr-Asn-Trp-Asn-Ser-Phe-GlyΨ[Tz]Leu-Arg-Phe-NH2] (HELM PEPTIDE1{[CCCCCCCCCCCCCCCC(=O)[*:2]].[gGlu].Y.N.W.N.S.F.[CC(C)C[C@@H](C(=O)[*:2])n1cc(CN[*:1])nn1].R.F.[am]}$$$$V2.0) here?
A: The EC50 was 0.01 nM.

Q: Which remaining at 3 h, 50 μM [1, 4] does the source give for `CC(C)C[C@H](NC(=O)CNC(=O)[C@H](Cc1ccccc1)NC(=O)[C@H](CO)NC(=O)[C@H](CC(N)=O)NC(=O)[C@H](Cc1c[nH]c2ccccc12)NC(=O)[C@H](CC(N)=O)NC(=O)[C@@H](N)Cc1ccc(O)cc1)C(=O)N[C@@H](CCCNC(=N)N)C(=O)N[C@@H](Cc1ccccc1)C(N)=O` [Comp. 2, reference compound] here?
A: Its remaining at 3 h, 50 μM is under 0.1%.

Q: For “H-YNWNSFGLRY-NH2 [Comp. 1, reference compound]”, which remaining at 3 h, 50 μM [1, 4] is on record?
A: The remaining at 3 h, 50 μM was under 0.1%.

Q: For `CCCCCCCCCCCCCCCC(=O)N[C@@H](CCC(=O)NCCCC[C@H](NC(=O)[C@H](CC(N)=O)NC(=O)[C@H](Cc1ccc(O)cc1)NC(C)=O)C(=O)N[C@@H](CC(N)=O)C(=O)N[C@@H](CO)C(=O)N[C@@H](Cc1ccccc1)C(=O)NCc1cn([C@@H](CC(C)C)C(=O)N[C@@H](CCCNC(=N)N)C(=O)N[C@@H](Cc2ccc(O)cc2)C(N)=O)nn1)C(=O)O` [Compound C11, Ac-Tyr-Asn-Lys(γ-(N-hexadecanoyl-Glu-OH))-Asn-Ser-Phe-GlyΨ[Tz]Leu-Arg-Tyr-NH2] (HELM PEPTIDE1{[ac].Y.N.K.N.S.F.[CC(C)C[C@@H](C(=O)[*:2])n1cc(CN[*:1])nn1].R.Y.[am]}|PEPTIDE2{[CCCCCCCCCCCCCCCC(=O)[*:2]].[gGlu]}$PEPTIDE1,PEPTIDE2,4:R3-2:R2$$$V2.0), which “human KISS1R-stimulating power (in words)” value (human KISS1R receptor) is on record?
A: Its value is “remains, however, active, although to a lesser degree”.

Q: With “Ac-Tyr-Lys(PEG5000)-Trp-Asn-Ser-Phe-GlyΨ[Tz]Leu-Arg-Tyr-NH2 (Ac-YK(PEG 5000)WNSFGLRY-NH2; also: Gly7-Leu8 peptide bond replaced by 1,4-disubstituted 1,2,3-triazole) [Compound C16, PEG5000 = COCH2CH2NH(CH2CH2O)nMe, average molecular weight approximately 5000 g/mol]” as the molecule, how does the “human KISS1R-stimulating power (in words)” value (human KISS1R receptor) read?
A: Its value is “shows a power similar to the comparative compound Comp.1”.

Q: For `CCCCCCCCCCCCCCCC(=O)N[C@@H](CCC(=O)N[C@@H](Cc1ccc(O)cc1)C(=O)N[C@@H](CC(N)=O)C(=O)N[C@@H](Cc1c[nH]c2ccccc12)C(=O)N[C@@H](CC(N)=O)C(=O)N[C@@H](CO)C(=O)N[C@@H](Cc1ccccc1)C(=O)NCc1cn([C@@H](CC(C)C)C(=O)N[C@@H](CCCNC(=N)NC)C(=O)N[C@@H](Cc2ccc(O)cc2)C(N)=O)nn1)C(=O)O` [Compound C12, γ-(N-hexadecanoyl-Glu-OH)Tyr-Asn-Trp-Asn-Ser-Phe-GlyΨ[Tz]Leu-Arg(Me)-Tyr-NH2] ({Palmitoyl-γGlu}-YNWNSF[Glyψ(1,4-Tz)Leu][Arg(Me)]Y-NH2), which EC50 (human KISS1R receptor; [3]) is on record?
A: Its EC50 is under 0.001 nM.

Q: For `CC(=O)N[C@@H](Cc1ccc(O)cc1)C(=O)N[C@@H](CC(N)=O)C(=O)N[C@@H](Cc1c[nH]c2ccccc12)C(=O)N[C@@H](CC(N)=O)C(=O)N[C@@H](CO)C(=O)N[C@@H](Cc1ccccc1)c1cn(Cc2cn([C@@H](CC(C)C)C(=O)N[C@@H](CCCNC(=N)N)C(=O)N[C@@H](Cc3ccc(O)cc3)C(N)=O)nn2)nn1` [Compound C5, Ac-Tyr-Asn-Trp-Asn-Ser-PheΨ[Tz]GlyΨ[Tz]Leu-Arg-Tyr-NH2], which “human KISS1R-stimulating power (in words)” value (human KISS1R receptor) is on record?
A: Its value is “remains, however, active, although to a lesser degree”.

Q: What about the remaining at 3 h, 50 μM ([1]; serum) of the same molecule?
A: Its remaining at 3 h, 50 μM is 51%.

Q: With `CCCCCCCCCCCCCCCC(=O)N[C@@H](CCC(=O)N[C@@H](Cc1ccc(O)cc1)C(=O)N[C@@H](CC(N)=O)C(=O)N[C@@H](Cc1c[nH]c2ccccc12)C(=O)N[C@@H](CC(N)=O)C(=O)N[C@@H](CO)C(=O)N[C@@H](Cc1ccccc1)C(=O)NCc1cn([C@@H](CC(C)C)C(=O)N[C@@H](CCCNC(=N)N)C(=O)N[C@@H](Cc2c[nH]c3ccccc23)C(N)=O)nn1)C(=O)O` [Compound C10, γ-(N-hexadecanoyl-Glu-OH)Tyr-Asn-Trp-Asn-Ser-Phe-GlyΨ[Tz]Leu-Arg-Trp-NH2] (HELM PEPTIDE1{[CCCCCCCCCCCCCCCC(=O)[*:2]].[gGlu].Y.N.W.N.S.F.[CC(C)C[C@@H](C(=O)[*:2])n1cc(CN[*:1])nn1].R.W.[am]}$$$$V2.0) as the molecule, how does the EC50 (human KISS1R receptor; [3]) read?
A: Its EC50 is under 0.001 nM.

Q: For `CNC(=N)NCCC[C@H](NC(=O)[C@H](CC(C)C)n1cc(CNC(=O)[C@H](Cc2ccccc2)NC(=O)[C@@H](NC(=O)[C@H](CC(N)=O)NC(=O)[C@@H]2C[C@@H](O)CN2C(=O)[C@@H](Cc2ccc(O)cc2)NC(C)=O)[C@@H](C)O)nn1)C(=O)N[C@@H](Cc1c[nH]c2ccccc12)C(N)=O` [Compound C7, Ac-DTyr-Hyp-Asn-Thr-Phe-GlyΨ[Tz]Leu-Arg(Me)-Trp-NH2] (HELM PEPTIDE1{[ac].[dY].[Hyp].N.T.F.[CC(C)C[C@@H](C(=O)[*:2])n1cc(CN[*:1])nn1].[CNC(=N)NCCC[C@H](N[*:1])C(=O)[*:2]].W.[am]}$$$$V2.0), which EC50 (human KISS1R receptor; [2]) is on record?
A: Its EC50 is 0.014 nM.

Q: And the remaining at 3 h, 50 μM ([1]; serum)?
A: Its remaining at 3 h, 50 μM is 17%.

Q: For `CCCCCCCCCCCCCCCC(=O)N[C@@H](CCC(=O)N[C@@H](Cc1ccc(O)cc1)C(=O)N[C@@H](CC(N)=O)C(=O)N[C@@H](Cc1c[nH]c2ccccc12)C(=O)N[C@@H](CC(N)=O)C(=O)N[C@@H](CO)C(=O)N[C@@H](Cc1ccccc1)C(=O)NCc1cn([C@@H](CC(C)C)C(=O)N[C@@H](CCCNC(=N)N)C(=O)N[C@@H](Cc2ccc(O)cc2)C(N)=O)nn1)C(=O)O` [Compound C9, γ-(N-hexadecanoyl-Glu-OH)-Tyr-Asn-Trp-Asn-Ser-Phe-GlyΨ[Tz]Leu-Arg-Tyr-NH2] (HELM PEPTIDE1{[CCCCCCCCCCCCCCCC(=O)[*:2]].[gGlu].Y.N.W.N.S.F.[CC(C)C[C@@H](C(=O)[*:2])n1cc(CN[*:1])nn1].R.Y.[am]}$$$$V2.0), which EC50 (human KISS1R receptor; [3]) is on record?
A: The EC50 was under 0.001 nM.
